Assays:
Assay type in all cases: cell-based
[1] = system: HIV-1NL4-3 Wild Type; test: Luminescence reduction assay, MT4 cells infected with HIV-1NL4-3 luciferase reporter virus, wild type; conditions: Human immunodeficiency virus 1, MT4, MT4 cells, 2% FCS
Summary of the method: (§1)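 MT4 cells pellet-infected 2 h at 37° C with HIV-1NL4-3 reporter virus (lu164 replacing nef; wild type or site-directed RT mutants), washed, then incubated with compound dilutions (1% DMSO, 2% or 10% FCS) for 5 days. Secreted luciferase read with coelenterazine buffer; EC50 = concentration halving RLU versus untreated infected cells.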

[2] = system: HIV-1NL4-3 K103N-Y181C; test: Luminescence reduction assay, MT4 cells infected with HIV-1NL4-3 luciferase reporter virus, RT mutant K103N-Y181C; conditions: Human immunodeficiency virus 1, MT4, read-out: EC50 (μM) MT4 Cells HIV-1NL4-3 K103N-Y181C 2% FCS, MT4 cells, HIV-1NL4-3 K103N-Y181C, 2% FCS
Summary of the method: as §1

[3] = system: HIV-1LAI Wild Type; test: AlamarBlue viability assay, HIV-1LAI-infected MT4 cells; conditions: Human immunodeficiency virus 1, MT4, MT4 cells, 10% FCS
Summary of the method: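 MT4 cells infected with HIV-1LAI (MOI 0.01, supernatant infection) cultured 5 days at 37 °C with compounds in RPMI with 2% or 10% FCS, 1% DMSO final. AlamarBlue fluorescence after 3 h; EC50 as 50% protection relative to uninfected cells, CC50 from high-concentration cytotoxicity.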

SMILES	EC50 [1] [µM]	EC50 [2] [µM]	EC50 [3] [µM]
COc1cc(-n2nc(C(=O)N3CNC(=O)C3)cc2-c2cc(F)cc(Cl)c2)ccn1 [Example 25, 1-{[5-(3-Chloro-5-fluorophenyl)-1-(2-methoxypyridin-4-yl)-1H-pyrazol-3-yl]carbonyl}imidazolidin-4-one]	0.004	0.04	0.011
O=C(c1cc(-c2cc(Br)cc(OC(F)(F)F)c2)n(-c2ccc(Cl)nc2)n1)N1CCSC1 [Example 36, {5-[3-Bromo-5-(trifluoromethoxy)phenyl]-1-(6-chloropyridin-3-yl)-1H-pyrazol-3-yl}(1,3-thiazolidin-3-yl)methanone]	0.149	0.08	2.37
COc1cc(Br)cc(-c2cc(C(=O)N3CCNC(=O)C3)nn2-c2cccnc2)c1 [Example 95]	0.005	0.054	0.033
COc1cc(-n2nc(C(=O)N3CNC(=O)C3)cc2-c2cc(Br)cc(OC(F)(F)F)c2)ccn1 [Example 55, 1-({5-[3-Bromo-5-(trifluoromethoxy)phenyl]-1-(2-methoxypyridin-4-yl)-1H-pyrazol-3-yl}carbonyl)imidazolidin-4-one]	0.003	0.01	0.104
O=C(c1cc(-c2cc(F)cc(Cl)c2)n(-c2ccnc(C(F)(F)F)c2)n1)N1CCSC1 [Example 18]	0.284	> 3.3	> 3.3
O=C1CN(C(=O)c2cc(-c3cc(F)cc(OC(F)F)c3)n(-c3cccnc3)n2)CN1 [Example 66, 1-({5-[3-(Difluoromethoxy)-5-fluorophenyl]-1-(pyridin-3-yl)-1H-pyrazol-3-yl}carbonyl)imidazolidin-4-one]	0.013	0.058	0.083
O=C1CN(C(=O)c2cc(-c3cc(F)cc(OC(F)F)c3)n(-c3ccnc(Cl)c3)n2)CN1 [Example 68, 1-({1-(2-Chloropyridin-4-yl)-5-[3-(difluoromethoxy)-5-fluorophenyl]-1H-pyrazol-3-yl}carbonyl)imidazolidin-4-one]	0.062	0.193	0.326
O=C1CN(C(=O)c2cc(-c3cc(F)cc(OC(F)(F)F)c3)n(-c3ccnc(Cl)c3)n2)CN1 [Example 62, 1-({1-(2-Chloropyridin-4-yl)-5-[3-fluoro-5-(trifluoromethoxy)phenyl]-1H-pyrazol-3-yl}carbonyl)imidazolidin-4-one]	0.044	0.066	0.352
O=C1CN(C(=O)c2cc(-c3cc(Cl)cc(OC(F)(F)F)c3)n(-c3cccnc3)n2)CN1 [Example 76, 1-({5-[3-Chloro-5-(trifluoromethoxy)phenyl]-1-(pyridin-3-yl)-1H-pyrazol-3-yl}carbonyl)imidazolidin-4-one]	0.014	0.019	0.207
O=C1CN(C(=O)c2cc(-c3cc(F)cc(Cl)c3)n(-c3ccnc(C(F)(F)F)c3)n2)CN1 [Example 16, 1-({5-(3-Chloro-5-fluorophenyl)-1-[2-(trifluoromethyl)pyridin-4-yl]-1H-pyrazol-3-yl}carbonyl)imidazolidin-4-one]	0.055	0.339	0.49
O=C1CN(C(=O)c2cc(-c3cc(Br)cc(OC(F)(F)F)c3)n(-c3cncc(F)c3)n2)CN1 [Example 44, 1-({5-[3-Bromo-5-(trifluoromethoxy)phenyl]-1-(5-fluoropyridin-3-yl)-1H-pyrazol-3-yl}carbonyl)imidazolidin-4-one]	0.018	0.02	0.274
Nc1ccc(-n2nc(C(=O)N3CNC(=O)C3)cc2-c2cc(F)cc(Cl)c2)cn1 [Example 12, 1-{[1-(6-Aminopyridin-3-yl)-5-(3-chloro-5-fluorophenyl)-1H-pyrazol-3-yl]carbonyl}imidazolidin-4-one]	0.189	0.377	1.79
O=C(c1cc(-c2cc(Br)cc(OC(F)(F)F)c2)n(-c2ccc[n+]([O-])c2)n1)N1CCS(=O)(=O)C1 [Example 33, {5-[3-Bromo-5-(trifluoromethoxy)phenyl]-1-(1-oxidopyridin-3-yl)-1H-pyrazol-3-yl}(1,1-dioxido-1,3-thiazolidin-3-yl)methanone]	0.069	0.299	1.02
O=C1CN(C(=O)c2cc(-c3ccnc(Cl)c3)n(-c3cccc(Cl)c3)n2)CCN1 [Example 115, 4-{[1-(3-Chlorophenyl)-5-(2-chloropyridin-4-yl)-1H-pyrazol-3-yl]carbonyl}piperazin-2-one]	0.027	1.09	0.352
O=C1CN(C(=O)c2cc(-c3cc(Br)cc(OC(F)(F)F)c3)n(-c3ccnc(C(F)(F)F)c3)n2)CN1 [Example 50, 1-({5-[3-Bromo-5-(trifluoromethoxy)phenyl]-1-[2-(trifluoromethyl)pyridin-4-yl]-1H-pyrazol-3-yl}carbonyl)imidazolidin-4-one]	0.102	0.167	1.86
O=C1CN(C(=O)c2cc(-c3cc(F)cc(Cl)c3)n(-c3ccccn3)n2)CN1 [Example 1, 1-{[5-(3-Chloro-5-fluorophenyl)-1-(pyridin-2-yl)-1H-pyrazol-3-yl]carbonyl}imidazolidin-4-one]	0.345	> 3.3	> 3.3
O=C1CN(C(=O)c2cc(-c3cc(F)cc(OCC(F)(F)F)c3)n(-c3cccnc3)n2)CN1 [Example 70, 1-({5-[3-Fluoro-5-(2,2,2-trifluoroethoxy)phenyl]-1-(pyridin-3-yl)-1H-pyrazol-3-yl}carbonyl)imidazolidin-4-one]	< 0.002	0.315	0.034
N#Cc1cc(OC(F)(F)F)cc(-c2cc(C(=O)N3CCNC(=O)C3)nn2-c2cccnc2)c1 [Example 89, 3-{3-[(3-Oxopiperazin-1-yl)carbonyl]-1-(pyridin-3-yl)-1H-pyrazol-5-yl}-5-(trifluoromethoxy)benzonitrile]	0.258	0.523	0.129
N#Cc1cc(OC(F)(F)F)cc(-c2cc(C(=O)N3CNC(=O)C3)nn2-c2cccnc2)c1 [Example 88, 3-{3-[(4-Oxoimidazolidin-1-yl)carbonyl]-1-(pyridin-3-yl)-1H-pyrazol-5-yl}-5-(trifluoromethoxy)benzonitrile]	0.015	0.026	0.186
O=C1CN(C(=O)c2cc(-c3ccnc(Cl)c3)n(-c3ccc(F)c(Cl)c3)n2)CCN1 [Example 113, 4-{[1-(3-Chloro-4-fluorophenyl)-5-(2-chloropyridin-4-yl)-1H-pyrazol-3-yl]carbonyl}piperazin-2-one]	0.025	0.298	0.233
O=C1CN(C(=O)c2cc(-c3ccnc(Cl)c3)n(-c3cccc(Cl)c3)n2)CN1 [Example 114, 1-{[1-(3-Chlorophenyl)-5-(2-chloropyridin-4-yl)-1H-pyrazol-3-yl]carbonyl}imidazolidin-4-one]	0.007	0.171	0.063
O=C1CN(C(=O)c2cc(-c3cc(Br)cc(OC(F)(F)F)c3)n(-c3ccc(Cl)nc3)n2)CN1 [Example 34, 1-({5-[3-Bromo-5-(trifluoromethoxy)phenyl]-1-(6-chloropyridin-3-yl)-1H-pyrazol-3-yl}carbonyl)imidazolidin-4-one]	0.01	0.003	0.098
O=C1CN(C(=O)c2cc(-c3cnc(F)c(Cl)c3)n(-c3cccc(Cl)c3)n2)CN1 [Example 110, 1-{[5-(5-Chloro-6-fluoropyridin-3-yl)-1-(3-chlorophenyl)-1H-pyrazol-3-yl]carbonyl}imidazolidin-4-one]	0.024	0.039	0.025
O=C1CN(C(=O)c2cc(-c3cc(F)cc(Cl)c3)n(-c3ccnc(Cl)c3)n2)CN1 [Example 14, 1-{[5-(3-Chloro-5-fluorophenyl)-1-(2-chloropyridin-4-yl)-1H-pyrazol-3-yl]carbonyl}imidazolidin-4-one]	0.005	0.067	0.096
O=C1CN(C(=O)c2cc(-c3cc(Br)cc(OC(F)(F)F)c3)n(-c3cncc(F)c3)n2)CCN1 [Example 45, 4-({5-[3-Bromo-5-(trifluoromethoxy)phenyl]-1-(5-fluoropyridin-3-yl)-1H-pyrazol-3-yl}carbonyl)piperazin-2-one]	0.095	0.232	0.55
O=C(c1cc(-c2cc(Cl)cc(OC(F)(F)F)c2)n(-c2ccc[n+](O)c2)n1)N1CCS(=O)(=O)C1 [Example 80, {5-[3-Chloro-5-(trifluoromethoxy)phenyl]-1-(1-oxidopyridin-3-yl)-1H-pyrazol-3-yl}(1,1-dioxido-1,3-thiazolidin-3-yl)methanone]	0.164	0.075	2.79
O=C1CN(C(=O)c2cc(-c3cc(F)cc(Cl)c3)n(-c3cccnc3)n2)CCN1 [Example 4, 4-{[5-(3-Chloro-5-fluorophenyl)-1-(pyridin-3-yl)-1H-pyrazol-3-yl]carbonyl}piperazin-2-one]	0.036	0.132	0.108
O=C(c1cc(-c2cc(F)cc(OC(F)(F)F)c2)n(-c2ccnc(Cl)c2)n1)N1CCS(=O)(=O)C1 [Example 65, {1-(2-Chloropyridin-4-yl)-5-[3-fluoro-5-(trifluoromethoxy)phenyl]-1H-pyrazol-3-yl}(1,1-dioxido-1,3-thiazolidin-3-yl)methanone]	0.026	0.291	0.491
